A value given as a limit tells only on which side of the number the result lay.

These results are taken from patent US11142514B2, “Imino compounds with a 2-chloropyrimidin-5-yl substituent as pest-control agents” (BASF SE, priority 2015, dated 2021).

Format in all cases: in vivo
In data set [1] the test system is Cotton aphid (Aphis gossypii). Put plainly: Cotton aphid (Aphis gossypii) foliar spray test B.3. The conditions noted are these: for Activity in %: comparative experiment, 300 ppm, assay according to B.3. The protocol:
(§1) The active compounds were formulated by a Tecan liquid handler in 100% cyclohexanone as a 10,000 ppm solution supplied in tubes. The 10,000 ppm solution was serially diluted in 100% cyclohexanone to make interim solutions. These served as stock solutions for which final dilutions were made by the Tecan in 50% acetone:50% water (v/v) into 10 or 20 ml glass vials. A nonionic surfactant (Kinetic®) was included in the solution at a volume of 0.01% (v/v). The vials were then inserted into an automated electrostatic sprayer equipped with an atomizing nozzle for application to plants/insects.
Cotton plants at the cotyledon stage were infested with aphids prior to treatment by placing a heavily infested leaf from the main aphid colony on top of each cotyledon. Aphids were allowed to transfer overnight to accomplish an infestation of 80-100 aphids per plant and the host leaf was removed. The infested plants were then sprayed by an automated electrostatic plant sprayer equipped with an atomizing spray nozzle. The plants were dried in the sprayer fume hood, removed from the sprayer, and then maintained in a growth room under fluorescent lighting in a 24-hr photoperiod at 25° C. and 20-40% relative humidity. Aphid mortality on the treated plants, relative to mortality on untreated control plants, was determined after 5 days.
(§2) The compound of example I-1 was compared with the compound of example I.B-4 of WO 2015/040116 having an unsubstituted pyrimidin-5-yl ring instead of the present 2-chloropyrimidin-5-yl ring with respect to the insecticidal activity. The assays were carried out as described above for the respective pest (the cotton aphid assay according to B.3).

The test system of data set [2] is Cowpea aphid (Aphis craccivora). Kind of data set: Cowpea aphid (Aphis craccivora) spray test B.5. The settings on record: for Activity in %: comparative experiment, 100 ppm. The procedure:
(§3) The active compound was dissolved at the desired concentration in a mixture of 1:1 (vol:vol) distilled water: acetone. Surfactant (Kinetic® HV) was added at a rate of 0.01% (vol/vol). The test solution was prepared at the day of use.
Potted cowpea plants were colonized with approximately 30-50 aphids of various stages by manually transferring a leaf tissue cut from infested plant 24 hours before application. Plants were sprayed with the test solutions using a DeVilbiss® hand atomizer at 20-30 psi (≈1.38 to 2.07 bar) after the pest population has been checked. Treated plants were maintained on light carts at about 25-26° C. Percent mortality was assessed after 72 hours.
as §2

Data set [3] concerns Green Peach Aphid (Myzus persicae). Kind of data set: Green peach aphid (Myzus persicae) foliar spray test B.7. The settings on record: for Activity in %: comparative experiment, 300 ppm. The procedure:
as §1
Bell pepper plants at the first true-leaf stage were infested prior to treatment by placing heavily infested leaves from the main colony on top of the treatment plants. Aphids were allowed to transfer overnight to accomplish an infestation of 30-50 aphids per plant and the host leaves were removed. The infested plants were then sprayed by an automated electrostatic plant sprayer equipped with an atomizing spray nozzle. The plants were dried in the sprayer fume hood, removed, and then maintained in a growth room under fluorescent lighting in a 24 h photoperiod at about 25° C. and about 20-40% relative humidity. Aphid mortality on the treated plants, relative to mortality on untreated control plants, was determined after 5 days.
as §2

Data set [4] relates to Green Soldier Stink Bug (Nezara viridula). Kind of data set: Green soldier stink bug (Nezara viridula) test B.8. The settings on record: in Glycine max, 120 h, read-out: mortality in comparison with untreated controls. The protocol: as §3
Soybean pods were placed in 90×50 mm glass Petri dishes lined with moist filter paper and inoculated with ten late 3rd instar N. viridula. Using a hand atomizer, an approximately 2 ml solution was sprayed into each Petri dish. Treated cups were kept at about 25-26° C. and relative humidity of about 65-70%. Percent mortality was recorded after 5 days.

The test system of data set [5] is Orchid thrips (Dichromothrips corbetti). Put plainly: Orchid thrips (Dichromothrips corbetti) floral immersion test B.10. The settings on record: for Activity in %: comparative experiment, 10 ppm. The protocol:
Dichromothrips corbetti adults used for bioassay were obtained from a colony maintained continuously under laboratory conditions. For testing purposes, the test compound was diluted in a 1:1 mixture of acetone:water (vol:vol), plus Kinetic® HV at a rate of 0.01% v/v.
Thrips potency of each compound was evaluated by using a floral immersion technique. All petals of individual, intact orchid flowers were dipped into treatment solution and allowed to dry in Petri dishes. Treated petals were placed into individual re-sealable plastic along with about 20 adult thrips. All test arenas were held under continuous light and a temperature of about 28° C. for duration of the assay. After 3 days, the numbers of live thrips were counted on each petal. The percent mortality was recorded 72 hours after treatment.
as §2

Data set [6] relates to Rice green leafhopper (Nephotettix virescens). Kind of data set: Rice green leafhopper (Nephotettix virescens) spray test B.12. The conditions noted are these: for Activity in %: comparative experiment, 10 ppm. The protocol:
Four to five-week old rice seedlings with cut upper leaf portion were cleaned and washed 24 hours before spraying. The active compounds were formulated in 1:1 acetone:water (vol:vol), and 0.01% vol/vol surfactant (Kinetic® HV) was added. Potted rice seedlings were sprayed with 5-6 ml test solution, air dried, covered with Mylar cages and inoculated with 10 adults. Treated rice plants were kept at about 28-29° C. and relative humidity of about 50-60%. Percent mortality was recorded after 72 hours.
as §2

For data set [7], the system named is Rice brown plant hopper (Nilaparvata lugens). Kind of data set: Rice brown plant hopper (Nilaparvata lugens) spray test B.13. The conditions noted are these: 72 h, read-out: mortality in comparison with untreated controls. The procedure:
Four to five-week old rice seedlings were cleaned and washed 24 hours before spraying. The active compounds were formulated in 1:1 acetone:water (vol:vol) and 0.01% vol/vol surfactant (Kinetic® HV) was added. Potted rice seedlings were sprayed with 5-6 ml test solution, air dried, covered with Mylar cages and inoculated with 10 adults. Treated rice plants were kept at about 28-29° C. and relative humidity of about 50-60%. Percent mortality was recorded after 72 hours.

Data set [8] concerns Southern armyworm (Spodoptera eridania). Put plainly: Southern armyworm (Spodoptera eridania) foliar spray test B.15. The settings on record: for Activity in %: comparative experiment, 300 ppm. The protocol: as §1
Lima bean plants (variety Sieva) were grown 2 plants to a pot and selected for treatment at the 1st true leaf stage. Test solutions were sprayed onto the foliage by an automated electrostatic plant sprayer equipped with an atomizing spray nozzle. The plants were dried in the sprayer fume hood and then removed from the sprayer. Each pot was placed into perforated plastic bags with a zip closure. About 10 to 11 armyworm larvae were placed into the bag and the bags zipped closed. Test plants were maintained in a growth room at about 25° C. and about 20-40% relative humidity for 4 days, avoiding direct exposure to fluorescent light (24 hour photoperiod) to prevent trapping of heat inside the bags. Mortality and reduced feeding were assessed 4 days after treatment, compared to untreated control plants.
as §2

Data set [9] concerns Vetch aphid (Megoura viciae). Kind of data set: Vetch aphid (Megoura viciae) leaf disk test B.19. The conditions noted are these: foliar, 120 h, read-out: mortality in comparison with untreated controls. The procedure: For evaluating control of vetch aphid (Megoura viciae) through contact or systemic means the test unit consisted of 24-well-microtiter plates containing broad bean leaf disks.
The compounds were formulated using a solution containing 75% v/v water and 25% v/v DMSO. Different concentrations of formulated compounds were sprayed onto the leaf disks at 2.5 μl, using a custom built micro atomizer, at two replications.
After application, the leaf disks were air-dried and 5-8 adult aphids placed on the leaf disks inside the microtiter plate wells. The aphids were then allowed to suck on the treated leaf disks and incubated at about 23±1° C. and about 50±5% relative humidity for 5 days. Aphid mortality and fecundity was then visually assessed.

The subject of data set [10] is Diamond back moth (Plutella xylostella). Put plainly: Diamond back moth (Plutella xylostella) leaf dip test B.6. The conditions noted are these: 300 ppm; cabbage leaf dip; 72 hours after treatment. The procedure: as §3
Leaves of cabbage were dipped in test solution and air-dried. Treated leaves were placed in petri dishes lined with moist filter paper and inoculated with ten 3rd instar larvae. Mortality was recorded 72 hours after treatment. Feeding damages were also recorded using a scale of 0-100%.

Turning to `N#CC1(C(=O)N=c2ccccn2Cc2cnc(Cl)nc2)CC1` [I-1, N-[1-[(2-chloropyrimidin-5-yl)methyl]-2-pyridylidene]-1-cyano-cyclopropanecarboxamide], the mortality at 300 ppm is over 75% in [1] (Aphis gossypii, foliar, 120 h, read-out: mortality in comparison with untreated controls); over 75% in data set [2] (Aphis craccivora, 72 h, read-out: mortality in comparison with untreated controls); over 75% in data set [4]; over 75% in [5] (Thrips, 72 h, read-out: mortality in comparison with untreated controls); over 75% in [6] (Nephotettix virescens, 72 h, read-out: mortality in comparison with untreated controls); over 75% in [7]. Further, the mortality at 300 ppm in [8] (Spodoptera eridania, in Phaseolus lunatus, foliar, 96 h, read-out: mortality in comparison with untreated controls) was over 75%. Besides, the Activity in % in data set [1] is on record as 90%; in [2], 50%; in data set [3], 100%; in data set [5], 100%; in data set [6] it was 90%; in data set [8] it was 100%. Further, the mortality at 2500 ppm in data set [3] (Myzus persicae, foliar, 120 h, read-out: mortality in comparison with untreated controls) is over 75%; in [9], over 75%.

Regarding `N#CC1(C(=O)N=c2ccccn2Cc2cncnc2)CC1` [I.B-4, reference compound], the Activity in % in data set [1] is recorded as 0%; in data set [2] it was 0%; in data set [3] it was 50%; in [5], 0%; in data set [6], 50%; in data set [8], 0%.

For `CON=CC(=O)N=c1ccccn1Cc1cnc(Cl)nc1` [I-2], in data set [10], the “mortality in comparison with untreated controls” value is “over 75%”.

Broadly, the mortality is the share of the test organisms that died.
